Data: patent publication US11517622B2, “Combination of regorafenib and PD-1/PD-L1(2) inhibitors for treating cancer” (BAYER AKTIENGESELLSCHAFT, priority 2017, dated 2022)

Assays:
[1] = tested on: MC38 syngeneic tumors; assay: Antitumor activity in syngenic murine MC38 CRC model (subcutaneous tumors); format: in vivo, mice
Method: The combinatorial activity of regorafenib and anti-mouse PD-1 antibody (RMP1-14, Peng et al., Cancer Res., (2012) 72(20), 5209-5218) was investigated in a syngenic murine MC38 CRC model
MC38 syngeneic tumors were grown subcutaneously in mice and treated with regorafenib and/or anti-mouse PD-1 antibody (RMP1-14) according to the following regimens: […]
Control animals were treated concomitantly with the regorafenib vehicle (PluronicF68/PEG400/Propylenglycol (15/42,5/42,5+20% aqua)) and a non-binding isotype control antibody (rat IgG2a, clone 2A3). Tumor growth was monitored by caliper measurement and the tumor area was calculated using the formula a×b where a and b are the long and short diameters of the tumor, respectively. Tumor weights were measured after completion of the study. Tumor vs control (T/C) was calculated using vehicle treated animals as reference.

[2] = tested on: CT26 syngeneic tumors; assay: Liver metastases in syngenic murine CT26 CRC model (orthotopic tumors); format: in vivo, mice
Method: The combinatorial activity of regorafenib and anti-mouse PD-1 antibody (RMP1-14, Peng et al., Cancer Res., (2012) 72(20), 5209-5218) was investigated in a syngenic murine CT26 CRC model
CT26 syngeneic tumors were grown orthotopically in mice (Abou-Elkacem et al., Mol Cancer Ther. 2013 July; 12(7):1322-31) and treated with regorafenib and/or anti-mouse PD-1 antibody (RMP1-14) according to the following regimens:
a) regorafenib alone at a dose of 30 mg/kg per day once daily for 10 days as a PluronicF68/PEG400/Propylenglycol/water (12/34/34/20) po (per oral) formulation using the formulation vehicle alone as control or in a combination with an unspecific control antibody given intraperitoneally (i.p.) at a dose of 20 mg/kg in PBS every third day. b) anti-mouse PD-1 antibody (RMP1-14) alone dosed at 20 mg/kg every third day for four times as a PBS i.p. formulation and an unspecific antibody was used as control c) in combination, regorafenib at a dose of 20 mg/kg per day once daily for 10 days as a PluronicF68/PEG400/Propylenglycol/water (/12/34/34/20) p.o. formulation and anti-mouse PD-1 antibody (RMP1-14) dosed at 20 mg/kg every third day for four times as a PBS i.p. formulation,
Mice were sacrificed at the end of treatment or at the end of the observation period and livers were screened macroscopically for metastases on their surface. The number of mice with liver metastases was then related to the total number of mice in the respective study arm.

[3] = d 14 p.i., after treatment, single agent
[4] = d 25 p.i., observation period after treatment stop at d 14, regorafenib plus control antibody

In the case of CNC(=O)c1cc(Oc2ccc(NC(=O)Nc3ccc(Cl)c(C(F)(F)F)c3)c(F)c2)ccn1 [Regorafenib, 4{4-[3-(4-chloro-3-trifluoromethylphenyl)-ureido]-3-fluorophenoxy}-pyridine-2-carboxylic acid methylamide], the “T/C (area)” value ([1]; regimen a): regorafenib 3 mg/kg po once daily for 15 days plus isotype control 10 mg/kg ip, tumor area vs vehicle) is reported as 0.68, the “T/C (weight)” value ([1]; regimen a): regorafenib 3 mg/kg po once daily for 15 days plus isotype control 10 mg/kg ip, tumor weight at study end vs vehicle) is reported as 0.64 and the “growth of MC38 tumors vs control” value ([1]; single agents) is reported as “inhibited the growth of MC38 tumors vs control”. For the same compound, the “# of animals with mets” value [2, 3] was 0, the “% animals wirth mets” value [2, 3] was 0% and the “# of animals with mets” value [2, 4] was 8. The “% animals wirth mets” value [2, 4] was 100%.
